Experimental data: patent US20260042763A1, “PE[…] POSITIVE […] THE TREATMENT OF IRRITABLE BOWEL SYNDROME AND OTHER AILMENTS OF THE PERIPHERAL NERVOUS SYSTEM” (The Johns Hopkins University, priority 2022, published 2026)

Target: T1, human isoforms of GABAA (α3ß2γ2) receptors (Homo sapiens, UniProt P18507+P34903)
T1 construct: expressed in transfected cells
Assay: Potentiation of GABA-evoked currents at GABAA (α3β2γ2) receptors, automated patch-clamp (QPatch), Example B1
Type: cell-based
Conditions: for Emax: Emax of potentiation, Ltk cells expressing GABAA α3β2γ2, 2.0 μM GABA, whole-cell, holding potential −80 mV, read-out: Max %
Experimental: The ability of compounds exemplified above to potentiate the effect of GABA on GABAA receptors (α3β2γ2) was determined using one or more of the methods described below.
Ltk cells stably expressing the human isoforms of GABAA (α3ß2γ2) receptors were used together with submaximal GABA concentrations to investigate the modulatory effects of the test items. Cells were incubated at 37° C. in a humidified atmosphere with 5% CO2 (rel. humidity about 95%). The cells were continuously maintained in and passaged in sterile culture flasks containing a 1:1 mixture of Dulbecco's modified eagle medium and nutrient mixture D-MEM/F-12 (1×, liquid, with L-Glutamine), supplemented with 10% fetal bovine serum and 1.0% Penicillin/Streptomycin solution. The complete medium as indicated above was supplemented with neomycin. In general, cells were passaged at a confluence of about 80 to 90%. For electrophysiological measurements cells were harvested at a confluence of about 80 to 90% from sterile culture flasks containing culture complete medium. Cells were transferred as suspension in PBS to the QPatch 16X or QPatch HTX system to the centrifuge/washer directly. Expression of GABA receptor was induced by adding Dexamethasone to the cells for 24 to 48 h before experimentation.
Modulatory effects of the compounds of this disclosure were investigated using cells stably transfected with GABA-activated channels of the GABAA (α3ß2γ2) subtype together with submaximal GABA concentrations. Expression of GABA receptor were induced by adding Dexamethasone to the cells for 24 to 48 h before experimentation. In general, cells were passaged at a confluence of about 80 to 90%. For electrophysiological measurements cells were harvested at a confluence of about 80 to 90% from sterile culture flasks containing culture complete medium. Cells were transferred as suspension in PBS to the QPatch 16X or QPatch HTX system to the centrifuge/washer directly. Cells were incubated at 37° C. in a humidified atmosphere with 5% CO2 (rel. humidity about 95%). The cells were continuously maintained in and passaged in sterile culture flasks containing a 1:1 mixture of Dulbecco's modified eagle medium and nutrient mixture D-MEM/F-12 (1×, liquid, with L-Glutamine), supplemented with 10% foetal bovine serum and 1.0% Penicillin/Streptomycin solution and neomycin. The 1× bath solution was made at least every 5 days out of a sterile 10× bath solution, which had been prepared prior to the experimental start of the present study and stored at 1° C. to 9° C. The final bath solution included Sodium Chloride 137 mM, Potassium Chloride 4 mM, Calcium Chloride 1.8 mM, Magnesium Chloride 1 mM, HEPES 10 mM, D-Glucose 10 mM, pH (NaOH) 7.4. The 1× intracellular solution was thawed every day and includes Potassium Chloride 130 mM, Magnesium Chloride 1 mM, Mg-ATP 5 mM, HEPES 10 mM, EGTA 5 Mm, pH (KOH) 7.2. Automated patch-clamping: Cells were transferred as suspension in serum-free medium to the QPatch HTX system and kept in the cell storage tank during experiments. All solutions applied to cells including the intracellular solution were maintained at room temperature (19° C. to 30° C.). After formation of a Gigaohm seal between the patch electrodes and transfected individual Ltk cells were ruptured to assure electrical access to the cell interior (whole-cell patch-configuration). Inward currents were measured upon application of 2.0 μM GABA to patch-clamped cells for 4 s. During the entire experiment the cells were voltage-clamped at a holding potential of −80 mV. For the analysis of test items, GABAA receptors were stimulated by 2.0 μM GABA and test item combinations described below. Thirty-second prewash steps with test items was performed in between two agonist applications. […]

T1 sequence (P34903 29-492): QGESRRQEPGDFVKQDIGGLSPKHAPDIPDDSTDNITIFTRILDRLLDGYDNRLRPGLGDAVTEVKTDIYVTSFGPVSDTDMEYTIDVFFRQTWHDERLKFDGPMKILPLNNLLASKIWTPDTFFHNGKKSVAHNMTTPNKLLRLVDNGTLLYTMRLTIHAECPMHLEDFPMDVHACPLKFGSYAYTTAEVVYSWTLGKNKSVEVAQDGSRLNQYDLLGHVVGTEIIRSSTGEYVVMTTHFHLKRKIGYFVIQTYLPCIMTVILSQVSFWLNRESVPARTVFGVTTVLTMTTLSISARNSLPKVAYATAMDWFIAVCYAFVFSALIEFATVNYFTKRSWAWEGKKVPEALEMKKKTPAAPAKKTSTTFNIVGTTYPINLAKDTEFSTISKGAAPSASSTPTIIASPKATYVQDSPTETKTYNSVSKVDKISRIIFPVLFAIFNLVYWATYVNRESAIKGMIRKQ
T1 sequence (P47870 25-512 partner limits assumed): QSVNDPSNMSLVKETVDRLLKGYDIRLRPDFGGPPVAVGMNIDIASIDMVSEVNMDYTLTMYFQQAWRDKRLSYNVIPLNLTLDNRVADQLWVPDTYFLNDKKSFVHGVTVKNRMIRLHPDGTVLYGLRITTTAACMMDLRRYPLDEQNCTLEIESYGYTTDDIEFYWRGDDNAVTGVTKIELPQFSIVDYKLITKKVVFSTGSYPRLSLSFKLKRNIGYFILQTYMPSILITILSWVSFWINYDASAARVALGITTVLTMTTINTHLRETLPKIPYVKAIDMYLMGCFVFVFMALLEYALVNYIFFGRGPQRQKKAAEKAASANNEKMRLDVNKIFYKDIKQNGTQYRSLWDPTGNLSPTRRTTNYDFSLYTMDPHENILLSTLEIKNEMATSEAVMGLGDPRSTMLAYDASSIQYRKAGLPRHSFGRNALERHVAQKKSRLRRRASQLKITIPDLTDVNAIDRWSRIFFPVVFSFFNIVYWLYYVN
T1 sequence (P18507 40-475): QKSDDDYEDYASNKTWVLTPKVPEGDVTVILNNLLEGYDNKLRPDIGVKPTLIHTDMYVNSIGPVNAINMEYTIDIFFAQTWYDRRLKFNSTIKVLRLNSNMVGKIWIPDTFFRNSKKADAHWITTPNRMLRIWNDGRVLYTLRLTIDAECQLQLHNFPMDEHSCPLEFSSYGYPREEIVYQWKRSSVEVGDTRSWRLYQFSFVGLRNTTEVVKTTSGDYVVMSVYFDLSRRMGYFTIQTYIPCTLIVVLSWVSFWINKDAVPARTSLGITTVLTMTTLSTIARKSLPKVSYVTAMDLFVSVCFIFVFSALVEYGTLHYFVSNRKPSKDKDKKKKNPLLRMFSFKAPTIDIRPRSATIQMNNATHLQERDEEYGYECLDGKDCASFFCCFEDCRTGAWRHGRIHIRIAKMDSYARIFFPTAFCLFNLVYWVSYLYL

Row | Compound | Emax | EC50
1 | O=C(O)c1cn2c(n1)CN=C(c1ccccc1F)c1ccc(Cl)cc1-2 [Compound 225, 9-chloro-6-(2-fluorophenyl)-4H-imidazo[1,2-a][1,4]benzodiazepine-2-carboxylic acid] | < 50% | 
2 | CNC(=O)c1cn2c(n1)CN=C(c1ccccc1F)c1cc(Cl)ccc1-2 [Compound 240, 8-chloro-6-(2-fluorophenyl)-N-methyl-4H-imidazo[1,2-a][1,4]benzodiazepine-2-carboxamide] | > 100% | < 50 nM
3 | O=C(O)c1cn2c(n1)CN=C(c1ccccc1Cl)c1cc(F)ccc1-2 [Compound 223] | < 50% | < 50 nM
4 | O=C(O)c1cn2c(n1)CN=C(c1ccc(F)cc1F)c1cc(Cl)ccc1-2 [Compound 216, 8-chloro-6-(2,4-difluorophenyl)-4H-imidazo[1,2-a][1,4]benzodiazepine-2-carboxylic acid] | < 50% | 
5 | O=C(O)c1cn2c(n1)CN=C(c1ccccc1Br)c1cc(Cl)ccc1-2 [Compound 206, 6-(2-bromophenyl)-8-chloro-4H-imidazo[1,2-a][1,4]benzodiazepine-2-carboxylic acid] | 50 to 100% | < 50 nM
6 | CN(C)C(=O)c1cn2c(n1)CN=C(c1ccccc1F)c1cc(Cl)ccc1-2 [Compound 241, 8-chloro-6-(2-fluorophenyl)-N,N-dimethyl-4H-imidazo[1,2-a][1,4]benzodiazepine-2-carboxamide] | > 100% | < 50 nM
7 | O=C(O)c1cn2c(n1)CN=C(c1ccccc1Cl)c1cc(Cl)ccc1-2 [Compound 220, 8-chloro-6-(2-chlorophenyl)-4H-imidazo[1,2-a][1,4]benzodiazepine-2-carboxylic acid] | > 100% | < 50 nM
8 | C[N+](C)(C)Cc1cn2c(n1)CN=C(c1ccccc1F)c1cc(Cl)ccc1-2 [Compound 202, {[12-chloro-9-(2-fluorophenyl)-2,5,8-triazatricyclo[8.4.0.0^2,6]tetradeca-1 (10),3,5,8,11,13-hexaen-4-yl]methyl}trimethylazanium chloride] | 50 to 100% | < 50 nM
9 | CCc1c(C(=O)O)nc2n1-c1ccc(Cl)cc1C(c1ccccc1F)=NC2 [Compound 217, 8-chloro-1-ethyl-6-(2-fluorophenyl)-4H-imidazo[1,2-a][1,4]benzodiazepine-2-carboxylic acid] | > 100% | < 50 nM
10 | CN(C)CCNC(=O)c1cn2c(n1)CN=C(c1ccccc1F)c1cc(Cl)ccc1-2 [Compound 228, 8-chloro-N-[2-(dimethylamino)ethyl]-6-(2-fluorophenyl)-4H-imidazo[1,2-a][1,4]benzodiazepine-2-carboxamide] | 50 to 100% | < 50 nM
11 | O=C(O)c1cn2c(n1)CN=C(c1ccccc1F)c1cccc(Cl)c1-2 [Compound 224] | < 50% | > 100 nM
12 | COCCOCCOCCOCCOCCOCCOCCOCCNC(=O)c1cn2c(n1)CN=C(c1ccccc1F)c1cc(Cl)ccc1-2 [Compound 229, 8-chloro-6-(2-fluorophenyl)-N-[2-[2-[2-[2-[2-[2-[2-(2-methoxyethoxy)ethoxy]ethoxy]ethoxy]ethoxy]ethoxy]ethoxy]ethyl]-4H-imidazo[1,2-a][1,4]benzodiazepine-2-carboxamide] | > 100% | > 100 nM
13 | O=C(O)c1cn2c(n1)CN=C(c1ccccc1F)c1cc(Br)ccc1-2 [Compound 207, 8-bromo-6-(2-fluorophenyl)-4H-imidazo[1,2-a][1,4]benzodiazepine-2-carboxylic acid] | > 100% | < 50 nM
14 | COCCOCCOCCOCCNC(=O)c1cn2c(n1)CN=C(c1ccccc1F)c1cc(Cl)ccc1-2 [Compound 211, 8-chloro-6-(2-fluorophenyl)-N-[2-[2-[2-(2-methoxyethoxy)ethoxy]ethoxy]ethyl]-4H-imidazo[1,2-a][1,4]benzodiazepine-2-carboxamide] | > 100% | 50 to 100 nM
15 | CP(C)(=O)CCCNC(=O)c1cn2c(n1)CN=C(c1ccccc1F)c1cc(Cl)ccc1-2 [Compound 209, 8-chloro-N-(3-dimethylphosphorylpropyl)-6-(2-fluorophenyl)-4H-imidazo[1,2-a][1,4]benzodiazepine-2-carboxamide] | 50 to 100% | < 50 nM
16 | O=C(O)c1cn2c(n1)CN=C(c1c(F)cccc1F)c1cc(Cl)ccc1-2 [Compound 214, 8-chloro-6-(2,6-difluorophenyl)-4H-imidazo[1,2-a][1,4]benzodiazepine-2-carboxylic acid] | 50 to 100% | < 50 nM
17 | O=C(O)c1nc2n(c1-c1ccccc1)-c1ccc(Cl)cc1C(c1ccccc1F)=NC2 [Compound 239, 8-chloro-6-(2-fluorophenyl)-1-phenyl-4H-imidazo[1,2-a][1,4]benzodiaze pine-2-carboxylic acid] | > 100% | > 100 nM
18 | O=C(O)c1cn2c(n1)C(O)N=C(c1ccccc1F)c1cc(Cl)ccc1-2 (stereo not drawn) [Compound 227, 8-chloro-6-(2-fluorophenyl)-4-hydroxy-4H-benzo[f]imidazo[1,2-a][1,4]diazepine-2-carboxylic acid] | 50 to 100% | 
19 | Cc1c(C(=O)O)nc2n1-c1ccc(Cl)cc1C(c1ccccc1F)=NC2 [Compound 213, 8-chloro-6-(2-fluorophenyl)-1-methyl-4H-imidazo[1,2-a][1,4]benzodiazepine-2-carboxylic acid] | > 100% | < 50 nM
20 | Nc1c(C(=O)O)nc2n1-c1ccc(Cl)cc1C(c1ccccc1F)=NC2 [Compound 249, 3-Amino-12-chloro-9-(2-fluorophenyl)-2,5,8-triazatricyclo[8.4.0.0^2,6]tetradeca-1 (10),3,5,8,11,13-hexaene-4-carboxylic acid] | > 100% | 
21 | O=C(O)c1nc2n(c1C1CC1)-c1ccc(Cl)cc1C(c1ccccc1F)=NC2 [Compound 212, 8-chloro-1-cyclopropyl-6-(2-fluorophenyl)-4H-imidazo[1,2-a][1,4]benzodiazepine-2-carboxylic acid] | > 100% | > 100 nM
22 | O=C(O)c1nc2n(c1Cl)-c1ccc(Cl)cc1C(c1ccccc1F)=NC2 [Compound 235] | > 100% | < 50 nM
23 | NC(=O)[C@H](O)c1cn2c(n1)CN=C(c1ccccc1F)c1cc(Cl)ccc1-2 [Compound 231, (2R)-2-[12-chloro-9-(2-fluorophenyl)-2,5,8-triazatricyclo[8.4.0.0^2,6]tetradeca-1 (10),3,5,8,11,13-hexaen-4-yl]-2-hydroxyacetamide] | > 100% | < 50 nM
24 | O=C(O)c1nc2n(c1CN1CCCCC1)-c1ccc(Cl)cc1C(c1ccccc1F)=NC2 [Compound 246, 8-chloro-6-(2-fluorophenyl)-1-(piperidin-1-ylmethyl)-4H-benzo[f]imidazo[1,2-a][1,4]diazepine-2-carboxylic acid] | 50 to 100% | > 100 nM
25 | Cc1ccccc1C1=NCc2nc(C(=O)O)cn2-c2ccc(Cl)cc21 [Compound 204, 8-chloro-6-(o-tolyl)-4H-imidazo[1,2-a][1,4]benzodiazepine-2-carboxylic acid] | > 100% | < 50 nM
26 | O=C(O)c1cn2c(n1)CN=C(c1cccc(F)c1F)c1cc(Cl)ccc1-2 [Compound 215, 8-chloro-6-(2,3-difluorophenyl)-4H-imidazo[1,2-a][1,4]benzodiazepine-2-carboxylic acid] | > 100% | < 50 nM
